Reference: US10138273B2, “Peptide ligands for hepatic stellate cells” (The Curators of the University of Missouri, priority 2015, dated 2018)
Where two headings read alike, the source gives them in different places. Ends that are not written are not given here.

How the values were obtained:
[1] = tested on: LX 2 cells; test: Cell viability (MTT) / apoptotic effect in LX 2 cells; type: cell-based, human
Description: (§1) LX 2 and HSC T6 (1×10^4 cells per well) cells were cultured in 96 well plates for 12 h in DMEM medium containing 10% FBS. The peptide 431/KLA fusion peptide, the mixture of peptide 431 and KLA peptide, and KIA peptide were incubated with the cells for 48 h. Cell viability was measured using MTT (3 (4,5 dimethylthiazol2 yi) 2,5 diphenyltetrazolium bromide) assay.
(§2) The proapoptotic peptide having the sequence of SEQ ID NO: 13, KLAKLAKKLAKLAK (KLA), is able to trigger mitochondrial disruption and induce cell death. However, the KLA peptide itself cannot enter cells to exert its proapoptotic activity. We therefore prepared a KLA/peptide 431 fusion peptide and examined its proapoptotic activity in LX 2 and HSC T6 cells.

[2] = tested on: HSC T6 cells; test: Apparent equilibrium dissociation constant (Kd) on HSC T6 cells; type: binding, rat; settings: 5 FAM labeled peptide, 1 h at 37° C., flow cytometry
Description: (§3) We next measured the apparent equilibrium dissociation constants (Kd) of the peptides (422, 425, 431, and 515) to LX 2 and HSC T6 cells as shown in FIG. 10A and FIG. 10B, respectively. The cells were incubated with 5 FAM labeled peptides at different concentrations for 1 h at 37° C. The labeled cells were detected by flow cytometry, and the apparent Kd value was calculated using GraphPad Prism. […] The result is consistent with the cellular uptake result depicted in FIGS. 7A-7B, 8A-8G, and 9A-9G.

[3] = tested on: LX-2 cells; test: Cellular uptake of siRNA nanocomplexes in LX-2 cells; type: cell-based, human; settings: siRNA nanocomplex modified with Peptide-431 (SNPP) versus free siRNA, SNCP, SNVP, 50 nM siRNA
Description: (§4) The siRNA was labeled with Alexa Flour-647, and the nanocomplexes were prepared using neutravidin as we reported before. Approximately 100,000 cells (HSC-T6, LX-2)/well were seed into 24 well plate and incubator at 37 C for 12 hrs, free siRNA and nanocomplexes (SNCP, SNVP, SNPP) were then incubated with the cells at a final siRNA concentration of 50 nM. The fluorescence intensity of the cells at different intervals was detected by FACSCalibur Flow Cytometry (BD Biosciences, Franklin Lakes, N.J.). FIG. 17A depicts an evaluation of the cellular uptake of free siRNA and the nanocomplexes in HSC-T6 cells, and FIG. 17B depicts an evaluation of the cellular uptake of free siRNA and the nanocomplexes in LX-2 cells.

[4] = tested on: rat hepatic stellate cells HSC T6; test: Cellular uptake of 5 FAM labeled peptides in HSC T6 cells (flow cytometry); type: cell-based; settings: 1 h incubation; for binding affinity compared to the control peptide and other selected peptides: HSC T6 cells
Description: (§5) We examined cellular uptake of 5 FAM labeled peptides (425, 431, and 515) in human hepatic stellate cells LX 2 upon treatment with nonenzymatic cell dissociation solution and trypsin. […] We also evaluated the effect of incubation time on cellular uptake of the peptides. 5 FAM labeled peptide 431 was incubated with LX 2 cells for different incubation time points. […] Therefore, nonenzymatic cell dissociation solution and 1 h incubation time were selected to evaluate all the peptides (420, 422, 425, 431, 504, and 515) in human hepatic stellate cells LX 2 and rat hepatic stellate cells HSC T6.

[5] = tested on: HSCs; test: Biodistribution of siRNA nanocomplexes in rats and rats with liver fibrosis; type: in vivo, rat; settings: siRNA modified with Peptide-431 versus other delivery systems; tail vein, 0.065 mg/kg siRNA, 2 hrs
Description: The siRNA was labeled with Alexa Flour-647, and the nanocomplexes were prepared using neutravidin as we reported before. The free siRNA and nanocomplexes (SNCP, SNVP, SNPP) were injected into rats by tail vein at an siRNA dose of 0.065 mg/kg. After 2 hrs, the rats were sacrificed and the major organs including the liver, heart, lung, spleen, muscle, kidney, and blood were harvested for fluorescence imaging using a Xenogen IVIS imaging system.
The siRNA was labeled with Alexa Flour-647, and the nanocomplexes were prepared using neutravidin as we reported before. Liver fibrosis was inducted by injection of CCl4. The free siRNA and nanocomplexes (SNCP, SNVP, SNPP) were injected into rats with liver fibrosis by tail vein at an siRNA dose of 0.065 mg/kg. After 2 hrs, the rats were sacrificed and the major organs including the liver, heart, lung, spleen, muscle, kidney, and blood were harvested for fluorescence imaging using a small animal imaging system (Brunker MS FX Pro). FIG. 19 depicts images evaluating the biodistribution of free siRNA and the nanocomplexes in Rats with liver fibrosis.

[6] = molecular target: T1, IGF2R (Homo sapiens, UniProt P11717); test: Specificity of peptide 431 to IGF2R: uptake in IGF2R-silenced LX 2 cells; type: cell-based; parameters: the expression of IGF2R in LX 2 cells was silenced using siRNA; endogenous in cells; host or cells: LX-2 human hepatic stellate cells; settings: for cellular uptake after silencing IGF2R with siRNA: LX 2, IGF2R siRNA versus scrambled siRNA
Description: In addition to affinity, we also evaluated the specificity of peptide 431 to IGF2R in LX 2 cells. For this purpose, the expression of IGF2R in LX 2 cells was silenced using siRNA As shown in FIGS. 11A-11B, the IGF2R siRNA (10 and 50 nM) dramatically knocked down the expression of IGF2R in LX 2 cells at the mRNA and protein levels.

[7] = tested on: HSC T6 cells; test: Cell viability (MTT) / apoptotic effect in HSC T6 cells; type: cell-based, rat; settings: HSC-T6, fused to peptide-431
Description: as §1, §2

[8] = molecular target: T1, IGF2R; test: Phage ELISA on recombinant human IGF2R protein; type: binding; parameters: conducted using recombinant human IGF2R extracellular domain protein (the first, third, and fifth rounds); settings: compared to peptide insertless control phage and other selected clones
Description: The binding affinity of the twenty-eight phages was evaluated by ELISA on recombinant human IGF2R protein. […] Additionally, the particular embodiment may include more specific aspects related to the materials and techniques employed by this method, which are described with more detail in the Experiment section below.
Twenty eight phage clones were randomly selected after the fourth and fifth rounds of biopanning and cultured in 1 mL of ER2738 bacteria (growing in early stage) at 37° C. for 4.5 h. Phage DNA was extracted, purified using the DNA clean system (Promega, Madison, Wis.), and then sequenced with an ABI Genetic Analyzer 3100 (Applied Biosystems, USA). The primer used for sequencing is SEQ ID NO: 14, 5′-CCCTCATAGTTAGCGTA ACG-3′. […] One of the phages was peptide insertless. In FIG. 3B, binding affinity of the selected phage clones encoding inserted peptides was evaluated by ELISA on recombinant human IGF2R protein.

[9] = tested on: LX 2 cells; test: Serum protein binding study: uptake in LX 2 cells in media containing FBS; type: cell-based, human; settings: LX 2, OptiMEM and DMEM with FBS up to 10%
Text: It is important to evaluate the stability of peptides in the presence of serum proteins, which may nonspecifically bind to IGF2R specific peptides. As a result, we evaluated the cellular uptake of 5 FAM labeled peptide 431 in LX 2 cells in the serum reduced medium OptiMEM and DMEM media containing different concentrations of FBS.

[10] = tested on: human hepatic stellate cells LX 2; test: Cellular uptake of 5 FAM labeled peptides in LX 2 cells (flow cytometry); type: cell-based; settings: for binding affinity compared to the control peptide and other selected peptides: LX 2 cells
Description: as §5

[11] = tested on: HSC-T6 cells; test: Cellular uptake of siRNA nanocomplexes in HSC-T6 cells; type: cell-based, rat; settings: siRNA nanocomplex modified with Peptide-431 (SNPP) versus free siRNA, SNCP, SNVP, 50 nM siRNA
Description: as §4

[12] = tested on: LX 2 cells; test: Apparent equilibrium dissociation constant (Kd) on LX 2 cells; type: binding, human
Description: as §3
In order to improve the binding affinity of peptide 431, […] may have the molecular structure depicted in FIG. 16A. Affinity of the dimeric peptide 431 was evaluated in LX 2 cells as described above.

## KLAKLAKKLAKLAK (proapoptotic peptide) [KLA peptide, reference compound]
[1]; LX 2, 48 h, MTT
  apoptotic activity / cell death: did not exhibit apoptotic activity

## VHWDFRQWWQPS [Peptide-431, IGF2R-specific peptide ligand encoded by phage 431]
[2]
  Kd: 12.3 µM
[3]
  cellular uptake of siRNA: highest cellular uptake of siRNA
[4]; 5 FAM labeled peptide, nonenzymatic cell dissociation solution, HSC T6
  cellular uptake: 12%
[4]
  binding affinity compared to the control peptide and other selected peptides: highest binding affinity
[4]; listed as Phage No. 431
  binding affinity compared to the control peptide and other selected peptides: greatest binding affinity
[5]
  specificity for HSCs (biodistribution): highest specificity for HSCs
[1]; LX-2, fused to peptide-431
  uptake of proapoptotic KLA peptide: enhances the uptake
[6]; listed as peptide 431
  cellular uptake after silencing IGF2R with siRNA: lower uptake
[6]; listed as peptide-431
  cellular uptake after silencing IGF2R with siRNA: significantly reduced
[6]; concluded from IGF2R silencing
  specificity to IGF2R on LX 2 cells: high specificity
[7]
  uptake of proapoptotic KLA peptide: enhances the uptake
[8]
  binding affinity to recombinant human IGF2R protein (phage ELISA): highest binding affinity
[8]; listed as peptide-431
  binding affinity to recombinant human IGF2R protein (phage ELISA): highest binding affinity and specificity
[9]
  cellular uptake in presence of FBS: not significantly affected
[10]; 5 FAM labeled peptide, nonenzymatic cell dissociation solution, 1 h incubation, LX 2
  cellular uptake: 62%
[10]; LX 2, different incubation time points
  effect of incubation time on cellular uptake: time dependent increase
[10]; 1 h incubation
  binding affinity compared to the control peptide and other selected peptides: highest binding affinity
[10]; 1 h incubation, listed as Phage No. 431
  binding affinity compared to the control peptide and other selected peptides: greatest binding affinity
[10]; nonenzymatic cell dissociation solution versus trypsin, LX 2
  effect of cell detachment method on cellular uptake: higher cellular uptake in nonenzymatic cell dissociation solution
[11]
  cellular uptake of siRNA: highest cellular uptake of siRNA

## dimeric peptide 431: dimer of Peptide-431 linked via a lysine, imaging agent coupled to the linker (FIG. 16A) (VHWDFRQWWQPS; also: dimer of two peptide chains linked via a lysine, imaging agent coupled to the linker)
[12]
  improvement of binding affinity (Kd) of dimer compared to monomeric peptide 431: approximately 9 fold
[12]; listed as Dimerization of peptide-431
  improvement of binding affinity (Kd) of dimer compared to monomeric peptide 431: approximately 9 fold
